Data as given in patent publication US20120165309A1, “HETERO RING DERIVATIVE” (Astellas Pharma Inc., priority 2009, published 2012).

Assays:
human PI3Kδ enzyme = molecular target: T1, human PI3Kδ enzyme (Homo sapiens, UniProt O00329); assay: PI3Kδ enzyme inhibitory activity (PI3-Kinase HTRF Assay kit); type: biochemical; conditions: human PI3Kδ 10 ng/well, ATP 30 μM, PIP2 10 μM, room temperature 30 minutes
T1 construct: purchased Millipore Corporation 14-604
Procedure: 1. PI3Kδ Enzyme Inhibitory Activity
For the experiment, a PI3-Kinase HTRF Assay kit (Millipore Corporation, Catalogue No. 33-016) and a human PI3Kδ enzyme (Millipore Corporation, Catalogue No. 14-604) were used. The measurement method was in accordance with the appended instructions. The overview thereof is as follows.
PI3Kδ (10 ng/well), phosphatidylinositol-4,5-bisphosphate (10 μM), ATP (30 μM), and the test compound were mixed in a 384-well plate (total 20 μL), and incubated at room temperature for 30 minutes. EDTA and biotinylated phosphatidylinositol-3,4,5-triphosphate were added thereto to stop the reaction. Thereafter, a Europium labeled anti-GST antibody, a GST bond GRP1 PH domain, and streptavidin-APC were added thereto, followed by incubation overnight. An HTRF ratio was measured using an HTRF plate reader. The IC50 value of the compound was calculated, taking the inhibition rate without addition of the enzyme as 100% and the inhibition rate without addition of the test compound as 0%, by means of a logistic method.
(§1) In the Table, Ex represents Example Compound No. as described later, PI3Kδ represents the IC50 value (nM) of a PI3Kδ enzyme inhibitory activity, and PI3Kα represents the IC50 value (nM) of a PI3Kα enzyme inhibitory activity.

Human PI3Kα = molecular target: T2, Human PI3Kα (Homo sapiens, UniProt P42336); assay: PI3Kα enzyme inhibitory activity (Kinase-Glo Plus luminescence); type: biochemical; conditions: Human PI3Kα 12 ng/well, phosphatidylinositol 0.2 μg/well, 37° C. for 3 hours
T2 construct: purchased Millipore Corporation 14-602
Procedure: 2. PI3Kα Enzyme Inhibitory Activity
Human PI3Kα (12 ng/well, Millipore Corporation, Catalogue No. 14-602), phosphatidylinositol (0.2 μg/well), and the test compound were mixed in a 384-well plate in a reaction buffer (50 mM Hepes, 10 mM NaCl, 10 mM MgCl2, 2 mM EGTA, 2 mM DTT, pH 7.3) (total 10 μl), and incubated at 37° C. for 3 hours. After the reaction, 10 μL of a Kinase-Glo Plus reagent (Promega, Catalogue No. V3772) was added thereto, and a luminescence was measured with a luminometer. The IC50 value of the compound was calculated, taking the inhibition rate without addition of the enzyme as 100% and the inhibition rate without addition of the test compound as 0%, by a logistic method.
as §1

T2 sequence (P42336 whole entry): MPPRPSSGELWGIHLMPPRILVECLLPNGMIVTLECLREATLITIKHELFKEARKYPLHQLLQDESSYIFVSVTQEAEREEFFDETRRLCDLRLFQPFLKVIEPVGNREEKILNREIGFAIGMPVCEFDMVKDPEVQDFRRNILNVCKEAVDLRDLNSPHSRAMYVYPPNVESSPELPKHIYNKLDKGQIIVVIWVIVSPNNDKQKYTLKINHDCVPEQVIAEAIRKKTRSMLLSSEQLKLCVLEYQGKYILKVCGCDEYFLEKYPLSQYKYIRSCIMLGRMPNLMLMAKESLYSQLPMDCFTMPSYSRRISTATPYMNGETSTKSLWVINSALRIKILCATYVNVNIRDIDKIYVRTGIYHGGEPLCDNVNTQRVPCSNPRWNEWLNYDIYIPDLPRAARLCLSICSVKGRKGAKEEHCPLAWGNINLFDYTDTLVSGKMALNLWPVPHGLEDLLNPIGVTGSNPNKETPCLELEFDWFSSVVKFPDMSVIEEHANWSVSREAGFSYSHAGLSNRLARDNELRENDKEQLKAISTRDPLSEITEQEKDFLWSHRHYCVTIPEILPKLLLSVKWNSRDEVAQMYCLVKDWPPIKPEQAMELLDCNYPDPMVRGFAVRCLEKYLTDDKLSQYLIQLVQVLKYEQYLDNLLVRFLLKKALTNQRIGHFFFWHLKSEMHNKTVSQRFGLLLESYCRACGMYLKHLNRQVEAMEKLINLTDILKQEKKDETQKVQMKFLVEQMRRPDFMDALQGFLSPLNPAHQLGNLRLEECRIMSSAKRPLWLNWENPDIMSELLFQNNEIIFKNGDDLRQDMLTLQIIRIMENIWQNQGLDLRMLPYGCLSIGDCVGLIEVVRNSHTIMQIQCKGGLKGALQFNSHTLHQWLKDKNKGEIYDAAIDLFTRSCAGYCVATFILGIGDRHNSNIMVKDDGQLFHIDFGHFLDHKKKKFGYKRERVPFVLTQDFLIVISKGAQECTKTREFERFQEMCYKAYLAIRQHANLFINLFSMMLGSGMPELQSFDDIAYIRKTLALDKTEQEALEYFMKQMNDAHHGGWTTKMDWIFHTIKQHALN
T2 sequence (P27986 whole entry partner): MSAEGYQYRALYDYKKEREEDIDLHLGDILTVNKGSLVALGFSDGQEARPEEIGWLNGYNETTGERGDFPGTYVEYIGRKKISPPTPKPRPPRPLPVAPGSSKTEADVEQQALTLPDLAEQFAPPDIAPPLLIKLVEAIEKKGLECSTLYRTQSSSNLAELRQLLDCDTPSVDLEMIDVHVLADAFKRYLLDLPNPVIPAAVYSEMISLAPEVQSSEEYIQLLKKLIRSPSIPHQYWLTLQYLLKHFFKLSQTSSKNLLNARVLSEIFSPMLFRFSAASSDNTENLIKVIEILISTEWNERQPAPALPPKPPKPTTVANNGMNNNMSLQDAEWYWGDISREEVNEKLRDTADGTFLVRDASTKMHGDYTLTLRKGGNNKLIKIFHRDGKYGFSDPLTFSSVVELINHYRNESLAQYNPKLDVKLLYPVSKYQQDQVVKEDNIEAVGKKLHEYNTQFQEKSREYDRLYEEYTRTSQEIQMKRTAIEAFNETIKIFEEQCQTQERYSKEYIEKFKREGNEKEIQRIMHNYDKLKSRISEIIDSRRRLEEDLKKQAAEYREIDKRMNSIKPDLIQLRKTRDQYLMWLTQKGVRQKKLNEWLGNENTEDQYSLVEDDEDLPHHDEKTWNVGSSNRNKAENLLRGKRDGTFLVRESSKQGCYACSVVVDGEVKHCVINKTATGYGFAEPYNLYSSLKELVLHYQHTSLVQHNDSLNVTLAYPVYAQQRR
T1 sequence (O00329 whole entry): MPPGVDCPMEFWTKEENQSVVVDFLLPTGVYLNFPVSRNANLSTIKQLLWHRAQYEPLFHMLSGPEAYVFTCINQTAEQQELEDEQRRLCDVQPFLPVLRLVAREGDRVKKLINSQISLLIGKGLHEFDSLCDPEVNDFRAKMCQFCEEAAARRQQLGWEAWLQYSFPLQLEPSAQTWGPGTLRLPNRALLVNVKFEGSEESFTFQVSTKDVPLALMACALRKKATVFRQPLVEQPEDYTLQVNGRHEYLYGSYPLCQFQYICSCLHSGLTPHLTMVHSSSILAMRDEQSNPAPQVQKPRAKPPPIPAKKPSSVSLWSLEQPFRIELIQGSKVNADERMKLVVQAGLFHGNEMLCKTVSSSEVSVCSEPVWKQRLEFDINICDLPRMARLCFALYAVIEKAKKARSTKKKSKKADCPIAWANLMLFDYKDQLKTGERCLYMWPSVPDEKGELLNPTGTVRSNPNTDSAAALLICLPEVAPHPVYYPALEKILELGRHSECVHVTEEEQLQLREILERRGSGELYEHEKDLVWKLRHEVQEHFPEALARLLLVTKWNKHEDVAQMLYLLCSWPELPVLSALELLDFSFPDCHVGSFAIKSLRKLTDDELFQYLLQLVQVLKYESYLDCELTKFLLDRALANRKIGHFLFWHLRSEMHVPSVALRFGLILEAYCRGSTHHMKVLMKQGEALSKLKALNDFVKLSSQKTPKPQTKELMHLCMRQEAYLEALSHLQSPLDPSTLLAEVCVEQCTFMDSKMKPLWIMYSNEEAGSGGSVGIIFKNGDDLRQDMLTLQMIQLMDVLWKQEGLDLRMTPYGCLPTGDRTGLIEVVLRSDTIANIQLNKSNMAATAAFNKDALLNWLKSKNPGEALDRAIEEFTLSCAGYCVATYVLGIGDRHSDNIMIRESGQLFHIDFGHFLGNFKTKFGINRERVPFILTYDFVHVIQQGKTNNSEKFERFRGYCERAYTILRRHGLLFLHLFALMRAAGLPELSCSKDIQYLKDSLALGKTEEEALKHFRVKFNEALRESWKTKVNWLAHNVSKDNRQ
T1 sequence (P27986 whole entry partner): as the sequence (P27986 whole entry partner) above

SMILES | IC50 (human PI3Kδ enzyme) [µM] | IC50 (Human PI3Kα) [µM]
Cc1ccc(S(=O)(=O)NCC(=O)N[C@H]2CC[C@H](Nc3nc(N4CCOCC4)cc(-n4c(C(F)F)nc5ccccc54)n3)CC2)cc1 [Example 53] | 0.0046 | 2.7
CC(=O)N(C)[C@H]1CC[C@H](Nc2nc(N3CCOCC3)nc(-n3c(C(F)F)nc4ccccc43)n2)CC1 [Example 14, N-[trans-4-({4-[2-(difluoromethyl)-1H-benzimidazol-1-yl]-6-morpholin-4-yl-1,3,5-triazin-2-yl}amino)cyclohexyl]-N-methylacetamide] | 0.0044 | 1.4
O=S1(=O)CCCN1[C@H]1CC[C@H](COc2cc(-n3c(C(F)F)nc4ccccc43)nc(N3CCOCC3)n2)CC1 [Example 209] | 0.02 | 2.8
CC(=O)N[C@H]1CC[C@H](Nc2nc(N3CCOCC3)nc(-n3c(C(F)F)nc4ccccc43)n2)CC1 [Example 193] | 0.023 | 0.55
O=C(CN1CCCCCC1)N[C@H]1CC[C@H](Nc2cc(-n3c(C(F)F)nc4ccccc43)nc(N3CCOCC3)n2)CC1 [Example 190] | 0.0041 | > 3
FC[C@@H]1CCCN1[C@H]1CC[C@@H](COc2cc(-n3c(C(F)F)nc4ccccc43)nc(N3CCOCC3)n2)CC1 [Example 483] | 0.015 | 8.7
CC(N[C@H]1CC[C@H](Nc2nc(N3CCOCC3)nc(-n3c(C(F)F)nc4ccccc43)n2)CC1)c1ccccc1O (some centres unmarked) [Example 108] | 0.0028 | 2.2
O=S1(=O)CCCN1[C@H]1CC[C@H](Nc2cc(-n3c(C(F)F)nc4ccccc43)nc(N3CCOCC3)n2)CC1 [Example 18, 6-[2-(difluoromethyl)-1H-benzimidazol-1-yl]-N-[trans-4-(1,1-dioxidoisothiazolin-2-yl)cyclohexyl]-2-morpholin-4-ylpyrimidin-4-amine] | 0.005 | 2.9
CN1CCC[C@@H](C(=O)N[C@H]2CC[C@H](Nc3nc(N4CCOCC4)cc(-n4c(C(F)F)nc5ccccc54)n3)CC2)C1 [Example 112] | 0.0046 | 1.4
O=S1(=O)CCN([C@H]2CC[C@H](CNc3cc(-n4c(C(F)F)nc5ccccc54)nc(N4CCOCC4)n3)CC2)CC1 [Example 229] | 0.01 | 6.7
CNC(=O)N[C@H]1CC[C@H](Nc2nc(N3CCOCC3)nc(-n3c(C(F)F)nc4ccccc43)n2)CC1 [Example 5, 1-[trans-4-({4-[2-(difluoromethyl)-1H-benzimidazol-1-yl]-6-morpholin-4-yl-1,3,5-triazin-2-yl}amino)cyclohexyl]-3-methylurea] | 0.011 | 0.21
O=C(NCCN1CCOCC1)N[C@H]1CC[C@H](Nc2nc(N3CCOCC3)nc(-n3c(C(F)F)nc4ccccc43)n2)CC1 [Example 6, 1-[trans-4-({4-[2-(difluoromethyl)-1H-benzimidazol-1-yl]-6-morpholin-4-yl-1,3,5-triazin-2-yl}amino)cyclohexyl]-3-(2-morpholin-4-ylethyl)urea] | 0.0046 | 0.33
O=C(NCc1ccc(F)cc1)N[C@H]1CC[C@H](Nc2nc(N3CCOCC3)nc(-n3c(C(F)F)nc4ccccc43)n2)CC1 [Example 116] | 0.0052 | 0.18
FC(F)c1nc2ccccc2n1-c1nc(N[C@H]2CC[C@H](N3CCOCC3)CC2)nc(N2CCOCC2)n1 [Example 10, 4-[2-(difluoromethyl)-1H-benzimidazol-1-yl]-6-morpholin-4-yl-N-(trans-4-morpholin-4-ylcyclohexyl)-1,3,5-triazin-2-amine] | 0.0071 | 1.5
CN(C)CC(=O)N(C)[C@H]1CC[C@H](Nc2nc(N3CCOCC3)nc(-n3c(C(F)F)nc4ccccc43)n2)CC1 [Example 47] | 0.016 | 0.9
FC(F)c1nc2ccccc2n1-c1cc(OC[C@H]2CC[C@H](N3CCOCC3)CC2)nc(N2CCOCC2)n1 [Example 216] | 0.0056 | > 3
O=C(N[C@H]1CC[C@H](Nc2nc(N3CCOCC3)cc(-n3c(C(F)F)nc4ccccc43)n2)CC1)[C@@H]1CCCN1 [Example 154] | 0.0038 | 1.8
O=C(CS(=O)(=O)c1ccccc1)N[C@H]1CC[C@H](Nc2nc(N3CCOCC3)cc(-n3c(C(F)F)nc4ccccc43)n2)CC1 [Example 52] | 0.0034 | 2.7
CC(N[C@H]1CC[C@H](Nc2nc(N3CCOCC3)nc(-n3c(C(F)F)nc4ccccc43)n2)CC1)C1CCCCC1 (some centres unmarked) [Example 107] | 0.0088 | –
O=S(=O)(N[C@H]1CC[C@H](Nc2cc(-n3c(C(F)F)nc4ccccc43)nc(N3CCOCC3)n2)CC1)c1ccccc1 [Example 95] | 0.0049 | 2.5
O=C1CCCN1[C@H]1CC[C@H](Nc2cc(-n3c(C(F)F)nc4ccccc43)nc(N3CCOCC3)n2)CC1 [Example 185] | 0.0043 | > 3
N[C@H]1CC[C@H](Nc2nc(N3CCOCC3)nc(-n3c(C(F)F)nc4ccccc43)n2)CC1 [Example 27] | 0.02 | 0.99
N#Cc1ccc(NC(=O)N[C@H]2CC[C@H](Nc3nc(N4CCOCC4)cc(-n4c(C(F)F)nc5ccccc54)n3)CC2)cc1 [Example 123] | 0.00085 | 0.46
N#Cc1ccc(NC(=O)N[C@H]2CC[C@H](Nc3cc(-n4c(C(F)F)nc5ccccc54)nc(N4CCOCC4)n3)CC2)cc1 [Example 125] | 0.0018 | > 3
O=C(CN1CCCC1)N[C@H]1CC[C@H](Nc2nc(N3CCOCC3)cc(-n3c(C(F)F)nc4ccccc43)n2)CC1 [Example 187] | 0.0091 | –
O=C(N[C@H]1CC[C@H](Nc2nc(N3CCOCC3)nc(-n3c(C(F)F)nc4ccccc43)n2)CC1)C(O)CO (some centres unmarked) [Example 39] | 0.0095 | 0.47
Oc1ccccc1CN[C@H]1CC[C@H](Nc2nc(N3CCOCC3)nc(-n3c(C(F)F)nc4ccccc43)n2)CC1 [Example 104] | 0.0021 | 0.81

The next lines start with the values.

IC50 (human PI3Kδ enzyme) [µM] | IC50 (Human PI3Kα) [µM] | SMILES
0.0086 | 5.5 | CC(F)CN(C)[C@H]1CC[C@H](CNc2nc(N3CCOCC3)cc(-n3c(C(F)F)nc4ccccc43)n2)CC1 (some centres unmarked) [Example 330]
0.023 | 2.9 | CCOCCN(C)[C@H]1CC[C@H](CNc2nc(N3CCOCC3)cc(-n3c(C(F)F)nc4ccccc43)n2)CC1 [Example 397]
0.031 | > 10 | FC[C@@H]1CCCN1[C@H]1CC[C@@H](CNc2cc(-n3c(C(F)F)nc4ccccc43)nc(N3CCOCC3)n2)CC1 [Example 485]
0.014 | 1 | CCN(C(C)CF)[C@H]1CC[C@H](CNc2nc(N3CCOCC3)cc(-n3c(C(F)F)nc4ccccc43)n2)CC1 (some centres unmarked) [Example 344]
0.011 | 1.5 | CCN(C(=O)COC)[C@H]1CC[C@H](CNc2nc(N3CCOCC3)cc(-n3c(C(F)F)nc4ccccc43)n2)CC1 [Example 499]
0.022 | 5.1 | CC(C)(C)OC(=O)NC(C)(C)C(=O)N[C@H]1CC[C@H](Nc2nc(N3CCOCC3)cc(-n3c(C(F)F)nc4ccccc43)n2)CC1 [Example 210]
0.016 | 1.6 | CC(F)C(C)N(C)[C@H]1CC[C@H](CNc2nc(N3CCOCC3)cc(-n3c(C(F)F)nc4ccccc43)n2)CC1 (some centres unmarked) [Example 384]
0.0036 | 0.61 | CCN(CC(C)(C)O)[C@H]1CC[C@H](CNc2nc(N3CCOC[C@H]3C)cc(-n3c(C(F)F)nc4ccccc43)n2)CC1 [Example 402]
0.013 | 2.3 | CC(C)(O)CN(CC(C)(C)O)[C@H]1CC[C@H](CNc2nc(N3CCOCC3)cc(-n3c(C(F)F)nc4ccccc43)n2)CC1 [Example 396]
0.0086 | 2.3 | CN(C)CCC(=O)N[C@H]1CC[C@H](Nc2nc(N3CCOCC3)cc(-n3c(C(F)F)nc4ccccc43)n2)CC1 [Example 208]
0.011 | 4.2 | C#CCN(CC#C)[C@H]1CC[C@H](CNc2nc(N3CCOCC3)cc(-n3c(C(F)F)nc4ccccc43)n2)CC1 [Example 423]
0.0089 | 1.1 | C#CCN(C(C)C(C)(C)O)[C@H]1CC[C@H](CNc2nc(N3CCOCC3)cc(-n3c(C(F)F)nc4ccccc43)n2)CC1 (some centres unmarked) [Example 481]
0.0082 | 1.5 | O=S1(=O)CCN([C@H]2CC[C@H](CNc3nc(N4CCOCC4)cc(-n4c(C(F)F)nc5ccccc54)n3)CC2)CC1 [Example 231]
0.015 | 3.5 | COCCN(CC(C)(C)O)[C@H]1CC[C@H](CNc2nc(N3CCOCC3)cc(-n3c(C(F)F)nc4ccccc43)n2)CC1 [Example 401]
